{"source": "patent US9492471B2", "about": "“Methods of treating a disease or disorder associated with Bruton'S Tyrosine Kinase” (Celgene Avilomics Research, Inc., priority 2013, dated 2016)", "test_in_all_cases": "HotSpot kinase profiling", "assay_type_in_all_cases": "biochemical", "key": {"LIMK1": {"biological_target": "T1, LIMK1 (Homo sapiens, UniProt P53667)", "T1 construct": "purchased Reaction Biology Corp", "T1 sequence (P53667 whole entry)": "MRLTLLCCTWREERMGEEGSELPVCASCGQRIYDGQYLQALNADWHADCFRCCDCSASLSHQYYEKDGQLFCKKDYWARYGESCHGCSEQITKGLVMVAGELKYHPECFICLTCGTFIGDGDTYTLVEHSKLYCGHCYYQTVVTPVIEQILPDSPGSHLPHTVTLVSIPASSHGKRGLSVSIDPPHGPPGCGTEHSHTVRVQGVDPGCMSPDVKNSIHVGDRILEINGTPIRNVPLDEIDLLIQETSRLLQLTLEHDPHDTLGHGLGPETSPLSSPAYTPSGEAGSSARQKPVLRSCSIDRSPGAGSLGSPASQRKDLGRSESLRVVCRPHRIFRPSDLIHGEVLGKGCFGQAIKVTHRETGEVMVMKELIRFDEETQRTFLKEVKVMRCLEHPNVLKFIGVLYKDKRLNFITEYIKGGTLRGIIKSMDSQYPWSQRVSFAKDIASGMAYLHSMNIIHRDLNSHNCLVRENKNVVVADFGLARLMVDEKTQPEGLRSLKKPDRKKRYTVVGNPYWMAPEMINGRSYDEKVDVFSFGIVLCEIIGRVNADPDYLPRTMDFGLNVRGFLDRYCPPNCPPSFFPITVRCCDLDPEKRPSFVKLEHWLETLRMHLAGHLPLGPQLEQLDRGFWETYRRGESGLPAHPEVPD", "method_in_brief": "(§1)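 Radiometric kinase assay with P81 filter capture; each kinase was added to fresh substrate plus cofactors in reaction buffer and incubated 2 h at room temperature. Unreacted phosphate was washed off with 0.1% phosphoric acid before detection; percent inhibition is relative to DMSO control, averaged over replicates.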"}, "STK38L/NDR2": {"biological_target": "T2, STK38L/NDR2 (Homo sapiens, UniProt Q9Y2H1)", "T2 construct": "purchased Reaction Biology Corp", "T2 sequence (Q9Y2H1 whole entry)": "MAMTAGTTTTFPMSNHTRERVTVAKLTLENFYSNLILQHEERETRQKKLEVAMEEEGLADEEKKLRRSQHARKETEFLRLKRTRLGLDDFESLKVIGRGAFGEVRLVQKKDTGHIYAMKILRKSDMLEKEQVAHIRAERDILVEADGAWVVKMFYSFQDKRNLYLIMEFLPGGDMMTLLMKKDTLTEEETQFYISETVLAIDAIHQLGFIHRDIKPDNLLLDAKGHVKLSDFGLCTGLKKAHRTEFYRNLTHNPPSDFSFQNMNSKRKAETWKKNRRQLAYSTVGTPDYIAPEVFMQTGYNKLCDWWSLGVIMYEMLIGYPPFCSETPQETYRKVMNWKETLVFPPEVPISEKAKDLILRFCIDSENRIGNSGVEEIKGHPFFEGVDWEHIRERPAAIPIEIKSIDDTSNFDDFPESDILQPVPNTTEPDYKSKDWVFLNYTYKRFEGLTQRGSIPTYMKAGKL", "method_in_brief": "as §1"}, "TRKC": {"biological_target": "T3, TRKC (Homo sapiens, UniProt Q16288)", "T3 construct": "purchased Reaction Biology Corp", "T3 sequence (Q16288 32-839)": "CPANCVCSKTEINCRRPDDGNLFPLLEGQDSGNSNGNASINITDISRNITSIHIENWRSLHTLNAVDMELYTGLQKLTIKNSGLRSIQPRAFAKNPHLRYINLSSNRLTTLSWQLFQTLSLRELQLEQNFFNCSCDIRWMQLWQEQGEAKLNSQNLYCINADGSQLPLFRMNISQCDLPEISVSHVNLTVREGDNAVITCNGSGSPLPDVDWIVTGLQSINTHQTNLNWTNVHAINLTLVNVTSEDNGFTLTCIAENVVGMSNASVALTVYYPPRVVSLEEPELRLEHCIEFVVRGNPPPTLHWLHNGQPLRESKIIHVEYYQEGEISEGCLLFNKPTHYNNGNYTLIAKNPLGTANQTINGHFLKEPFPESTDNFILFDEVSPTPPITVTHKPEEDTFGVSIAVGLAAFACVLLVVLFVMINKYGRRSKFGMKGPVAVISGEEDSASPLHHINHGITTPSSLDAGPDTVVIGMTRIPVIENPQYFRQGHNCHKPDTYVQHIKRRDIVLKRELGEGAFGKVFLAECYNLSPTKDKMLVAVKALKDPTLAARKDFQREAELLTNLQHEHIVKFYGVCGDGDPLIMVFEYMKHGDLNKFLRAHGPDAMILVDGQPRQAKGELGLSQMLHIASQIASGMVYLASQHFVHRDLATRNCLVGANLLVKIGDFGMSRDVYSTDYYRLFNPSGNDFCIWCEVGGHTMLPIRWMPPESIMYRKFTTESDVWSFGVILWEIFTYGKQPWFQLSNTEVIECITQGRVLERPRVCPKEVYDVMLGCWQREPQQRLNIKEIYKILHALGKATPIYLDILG", "method_in_brief": "as §1"}, "MARK4": {"biological_target": "T4, MARK4 (Homo sapiens, UniProt Q96L34)", "T4 construct": "purchased Reaction Biology Corp", "T4 sequence (Q96L34 1-752)": "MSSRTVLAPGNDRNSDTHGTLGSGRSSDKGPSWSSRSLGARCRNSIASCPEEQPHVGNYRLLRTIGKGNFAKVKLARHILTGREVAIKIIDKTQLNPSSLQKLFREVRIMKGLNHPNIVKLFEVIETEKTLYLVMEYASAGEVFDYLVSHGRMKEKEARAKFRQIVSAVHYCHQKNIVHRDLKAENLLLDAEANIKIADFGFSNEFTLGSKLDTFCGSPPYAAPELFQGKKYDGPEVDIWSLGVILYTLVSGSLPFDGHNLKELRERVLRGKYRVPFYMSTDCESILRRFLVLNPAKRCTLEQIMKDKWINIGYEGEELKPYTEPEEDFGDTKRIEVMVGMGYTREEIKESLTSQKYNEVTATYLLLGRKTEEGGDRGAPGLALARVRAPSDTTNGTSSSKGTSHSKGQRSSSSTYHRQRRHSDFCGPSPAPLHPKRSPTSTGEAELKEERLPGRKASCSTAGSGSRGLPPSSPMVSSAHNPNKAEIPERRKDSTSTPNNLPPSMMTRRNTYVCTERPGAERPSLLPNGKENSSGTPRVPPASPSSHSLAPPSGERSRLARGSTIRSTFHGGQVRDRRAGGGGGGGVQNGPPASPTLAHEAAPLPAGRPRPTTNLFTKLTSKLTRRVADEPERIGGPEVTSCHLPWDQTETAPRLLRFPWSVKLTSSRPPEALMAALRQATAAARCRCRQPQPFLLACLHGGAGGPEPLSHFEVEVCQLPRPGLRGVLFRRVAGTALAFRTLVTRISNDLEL", "method_in_brief": "as §1"}, "CDK9/cyclin T1": {"biological_target": "T5, CDK9/cyclin T1 (Homo sapiens, UniProt P50750)", "T5 construct": "purchased Reaction Biology Corp", "T5 sequence (P50750 whole entry)": "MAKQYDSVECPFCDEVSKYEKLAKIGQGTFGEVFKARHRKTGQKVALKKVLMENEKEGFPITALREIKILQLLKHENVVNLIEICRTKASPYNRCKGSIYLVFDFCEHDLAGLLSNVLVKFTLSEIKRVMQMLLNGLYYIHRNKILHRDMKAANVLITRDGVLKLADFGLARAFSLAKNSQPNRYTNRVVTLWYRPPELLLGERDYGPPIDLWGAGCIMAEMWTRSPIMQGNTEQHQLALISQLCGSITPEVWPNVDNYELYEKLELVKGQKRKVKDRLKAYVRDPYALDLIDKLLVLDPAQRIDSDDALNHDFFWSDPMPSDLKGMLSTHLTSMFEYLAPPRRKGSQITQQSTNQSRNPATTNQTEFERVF", "T5 sequence (O60563 whole entry partner)": "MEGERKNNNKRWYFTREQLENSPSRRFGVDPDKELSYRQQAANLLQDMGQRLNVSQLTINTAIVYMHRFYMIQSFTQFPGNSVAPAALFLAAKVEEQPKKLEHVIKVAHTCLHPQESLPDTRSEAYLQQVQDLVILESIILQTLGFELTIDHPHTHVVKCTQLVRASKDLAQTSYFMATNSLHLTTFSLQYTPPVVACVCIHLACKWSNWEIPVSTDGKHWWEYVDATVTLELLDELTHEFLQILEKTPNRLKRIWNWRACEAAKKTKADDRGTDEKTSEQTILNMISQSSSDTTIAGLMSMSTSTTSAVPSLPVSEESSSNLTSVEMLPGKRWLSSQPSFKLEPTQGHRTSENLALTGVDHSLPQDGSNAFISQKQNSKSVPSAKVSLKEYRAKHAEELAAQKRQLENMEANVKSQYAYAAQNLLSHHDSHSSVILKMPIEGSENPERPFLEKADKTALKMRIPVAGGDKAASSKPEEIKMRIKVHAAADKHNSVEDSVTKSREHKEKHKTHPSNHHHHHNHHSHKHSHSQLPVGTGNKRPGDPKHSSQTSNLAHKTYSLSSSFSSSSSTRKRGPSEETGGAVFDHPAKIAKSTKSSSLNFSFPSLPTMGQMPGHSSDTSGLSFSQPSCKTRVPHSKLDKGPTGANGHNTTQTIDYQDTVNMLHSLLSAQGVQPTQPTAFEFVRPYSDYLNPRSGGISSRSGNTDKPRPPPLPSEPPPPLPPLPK", "method_in_brief": "as §1"}, "AXL": {"biological_target": "T6, AXL (Homo sapiens, UniProt P30530)", "T6 construct": "purchased Reaction Biology Corp", "T6 sequence (P30530 26-894)": "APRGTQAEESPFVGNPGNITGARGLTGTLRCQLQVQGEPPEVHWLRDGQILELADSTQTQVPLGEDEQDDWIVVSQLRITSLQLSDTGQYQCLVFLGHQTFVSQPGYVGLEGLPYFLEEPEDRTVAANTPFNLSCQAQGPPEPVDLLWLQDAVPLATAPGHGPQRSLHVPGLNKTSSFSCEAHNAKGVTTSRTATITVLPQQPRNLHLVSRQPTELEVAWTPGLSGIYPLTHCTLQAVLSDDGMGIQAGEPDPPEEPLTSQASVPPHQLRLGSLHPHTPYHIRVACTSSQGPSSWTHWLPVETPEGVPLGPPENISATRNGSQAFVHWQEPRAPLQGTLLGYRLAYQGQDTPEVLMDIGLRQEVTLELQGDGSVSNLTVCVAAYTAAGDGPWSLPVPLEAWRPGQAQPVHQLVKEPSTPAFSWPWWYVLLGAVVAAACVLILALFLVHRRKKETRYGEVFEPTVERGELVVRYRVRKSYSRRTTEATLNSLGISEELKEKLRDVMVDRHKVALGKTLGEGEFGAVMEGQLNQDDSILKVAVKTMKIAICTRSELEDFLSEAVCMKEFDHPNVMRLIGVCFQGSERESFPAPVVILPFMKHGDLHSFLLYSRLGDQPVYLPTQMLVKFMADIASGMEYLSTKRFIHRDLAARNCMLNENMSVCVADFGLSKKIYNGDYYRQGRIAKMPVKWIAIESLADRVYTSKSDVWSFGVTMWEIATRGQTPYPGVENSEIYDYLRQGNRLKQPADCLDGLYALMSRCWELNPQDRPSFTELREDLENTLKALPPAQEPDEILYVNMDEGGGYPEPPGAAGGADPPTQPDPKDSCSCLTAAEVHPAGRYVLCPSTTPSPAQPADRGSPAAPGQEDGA", "method_in_brief": "as §1"}, "[1]": {"conditions": "read-out: % Enzyme Activity (relative to DMSO controls) Run 1"}, "[2]": {"conditions": "read-out: % Enzyme Activity (relative to DMSO controls) Run 2"}}, "note": "Where two headings read alike, the source gives them in different places.", "data": [{"smiles": "C=CC(=O)Nc1cccc(Nc2nc(Nc3ccc(OCCOC)c(F)c3)ncc2F)c1", "note": "[Compound 2]", "values": [{"measurement": "inhibition at 3 µM", "setting": "LIMK1", "value": 38.8, "unit": "%"}, {"measurement": "remaining activity at 3 µM", "setting": "LIMK1; [1]", "value": 61, "unit": "%"}, {"measurement": "remaining activity at 3 µM", "setting": "LIMK1; [2]", "value": 61.4, "unit": "%"}, {"measurement": "inhibition at 3 µM", "setting": "STK38L/NDR2", "value": -1.33, "unit": "%"}, {"measurement": "remaining activity at 3 µM", "setting": "STK38L/NDR2; [1]", "value": 107, "unit": "%"}, {"measurement": "remaining activity at 3 µM", "setting": "STK38L/NDR2; [2]", "value": 96, "unit": "%"}, {"measurement": "inhibition at 3 µM", "setting": "TRKC", "value": 66.3, "unit": "%"}, {"measurement": "remaining activity at 3 µM", "setting": "TRKC; [1]", "value": 35.1, "unit": "%"}, {"measurement": "remaining activity at 3 µM", "setting": "TRKC; [2]", "value": 32.3, "unit": "%"}, {"measurement": "inhibition at 3 µM", "setting": "MARK4", "value": 18.5, "unit": "%"}, {"measurement": "remaining activity at 3 µM", "setting": "MARK4; [1]", "value": 82.2, "unit": "%"}, {"measurement": "remaining activity at 3 µM", "setting": "MARK4; [2]", "value": 80.9, "unit": "%"}, {"measurement": "inhibition at 3 µM", "setting": "CDK9/cyclin T1", "value": 10.3, "unit": "%"}, {"measurement": "remaining activity at 3 µM", "setting": "CDK9/cyclin T1; [1]", "value": 87.8, "unit": "%"}, {"measurement": "remaining activity at 3 µM", "setting": "CDK9/cyclin T1; [2]", "value": 91.5, "unit": "%"}, {"measurement": "inhibition at 3 µM", "setting": "AXL", "value": 51.3, "unit": "%"}, {"measurement": "remaining activity at 3 µM", "setting": "AXL; [1]", "value": 48.6, "unit": "%"}, {"measurement": "remaining activity at 3 µM", "setting": "AXL; [2]", "value": 48.8, "unit": "%"}]}]}
